This is an account of results in PubChem BioAssay AID328 (DTP/NCI, 2004).

The assay relates to BDF1 mice, P388 leukemia ip, median survival T/C. In words: NCI In Vivo Anticancer Drug Screen. Data for tumor model P388 Leukemia (intraperitoneal) in B6D2F1 (BDF1) mice. The settings on record: endpoint: median survival time, higher = longer survival. The gist of the method: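 Reported as T/C, where T is the survival measurement in dosed animals and C the same measurement in vehicle controls.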

Where [1] appears, read: dose: 25.0 mg/kg/injection, schedule: Q01DX009 (ip), vehicle: Klucel (hydroxypropylcellulose) (HPC).
[2] abbreviates: dose: 50.0 mg/kg/injection, schedule: Q01DX009 (ip), vehicle: Klucel (hydroxypropylcellulose) (HPC).
[3] abbreviates: dose: 100.0 mg/kg/injection, schedule: Q01DX009 (ip), vehicle: Klucel (hydroxypropylcellulose) (HPC).
Setting [4] is: dose: 100.0 mg/kg/injection, schedule: Q04DX003 (ip), vehicle: saline with Tween-80.
[5] abbreviates: dose: 200.0 mg/kg/injection, schedule: Q01DX009 (ip), vehicle: saline with Tween-80.
Setting [6] is: dose: 400.0 mg/kg/injection, schedule: Q01DX009 (ip), vehicle: saline with Tween-80.
[7] abbreviates: dose: 400.0 mg/kg/injection, schedule: Q04DX003 (ip), vehicle: saline with Tween-80.
The mark [8] stands for this setting: dose: 100.0 mg/kg/injection, schedule: Q04DX003 (ip), vehicle: Klucel (hydroxypropylcellulose) (HPC).
The mark [9] stands for this setting: dose: 200.0 mg/kg/injection, schedule: Q01DX009 (ip), vehicle: Klucel (hydroxypropylcellulose) (HPC).
Setting [10] is: dose: 200.0 mg/kg/injection, schedule: Q04DX003 (ip), vehicle: Klucel (hydroxypropylcellulose) (HPC).
The mark [11] stands for this setting: dose: 100.0 mg/kg/injection, schedule: Q01DX009 (ip), vehicle: saline with Tween-80.
Where [12] appears, read: dose: 200.0 mg/kg/injection, schedule: Q04DX003 (ip), vehicle: saline with Tween-80.
The mark [13] stands for this setting: dose: 50.0 mg/kg/injection, schedule: Q04DX003 (ip), vehicle: saline with Tween-80.
Where [14] appears, read: dose: 50.0 mg/kg/injection, schedule: Q01DX009 (ip), vehicle: saline with Tween-80.
Setting [15] is: dose: 200.0 mg/kg/injection, schedule: Q04DX002 (ip), vehicle: saline with Tween-80.

“And” between values parts separate entries of the source, which are not always exact repeats. Identical values can stand only once. Toxic doses and inconclusive results are not listed.

On to `O=C(O)CNC(=O)CCl`, for which the T/C is, setting by setting: under setting [1], 110 % of control; under setting [2], 120 % of control; under setting [3], 120 % of control; (dose: 225.0 mg/kg/injection, schedule: Q01DX009 (ip), vehicle: Klucel (hydroxypropylcellulose) (HPC)) 86 % of control.
`C[C@]12C=CC(=O)C=C1CC[C@@H]1[C@@H]2[C@@H](O)C[C@@]2(C)[C@H]1CC[C@]2(O)C(=O)COC(=O)CCC(=O)O`: the T/C reads like this: (dose: 66.0 mg/kg/injection, schedule: Q04DX003 (ip), vehicle: saline with Tween-80) 113 % of control; under setting [4], 113 % of control; (dose: 150.0 mg/kg/injection, schedule: Q04DX003 (ip), vehicle: saline with Tween-80) 108 % of control; under setting [5], 118 % of control; under setting [6], 118 % of control; under setting [7], 104 % of control.
With `COc1ccc(C2CCCCC2O)cc1` (stereo unspecified), the T/C reads like this: under setting [3], 100 % of control; under setting [8], 100 % of control; under setting [9], 100 % of control; under setting [10], 100 % of control; (dose: 400.0 mg/kg/injection, schedule: Q04DX003 (ip), vehicle: Klucel (hydroxypropylcellulose) (HPC)) 110 % of control.
Take `CC/C(=C(\c1ccccc1)c1ccc(OCCN(C)C)cc1)c1ccccc1`: the T/C under setting [1] was 122 % of control; the T/C under setting [2] is 122 % of control; the T/C under setting [3] was 102 % of control and 108 % of control.
Turning to `C[C@H]1[C@H](C)CC[C@]2(CO)CC[C@]3(C)C(=CC[C@@H]4[C@@]5(C)CC[C@@H](O)C(C)(C)[C@@H]5CC[C@]43C)[C@H]12`, the T/C reads like this: (dose: 50.0 mg/kg/injection, schedule: Q01DX010 (ip), vehicle: acetone) 120 % of control; (dose: 400.0 mg/kg/injection, schedule: Q01DX010 (ip), vehicle: acetone) 110 % of control.
For the compound `COc1cccc(OC)c1-c1oc2ccccc2c(=O)c1O`, the T/C is 107 % of control under setting [11]; 104 % of control under setting [4]; 100 % of control under setting [5]; 109 % of control under setting [12]; 100 % of control under setting [6]; 100 % of control under setting [7].
With `CCOc1ccc(Nc2cc([N+](=O)[O-])ccc2C(=O)O)cc1`, the T/C under setting [13] was 100 % of control, the T/C under setting [4] was 90 % of control and the T/C under setting [12] was 90 % of control.
As to `C=C(NC(C)=O)C(=O)O`, the T/C runs as follows: (dose: 20.0 mg/kg/injection, schedule: Q04DX003 (ip), vehicle: Klucel (hydroxypropylcellulose) (HPC)) 108 % of control; under setting [1], 104 % of control; (dose: 40.0 mg/kg/injection, schedule: Q04DX003 (ip), vehicle: Klucel (hydroxypropylcellulose) (HPC)) 108 % of control; under setting [2], 104 % of control; (dose: 80.0 mg/kg/injection, schedule: Q04DX003 (ip), vehicle: Klucel (hydroxypropylcellulose) (HPC)) 86 % of control; under setting [3], 90 % of control. For the same compound, under setting [8], the T/C is 95 % of control.
Take `CC(=O)Oc1ccc(/C=N/NC(N)=S)nc1`: the T/C reads like this: (dose: 0.18 mg/kg/injection, schedule: Q01DX009 (ip), vehicle: saline with Tween-80) 123 % of control; (dose: 0.27 mg/kg/injection, schedule: Q01DX009 (ip), vehicle: saline with Tween-80) 116 % of control; (dose: 0.4 mg/kg/injection, schedule: Q01DX009 (ip), vehicle: saline with Tween-80) 176 % of control; (dose: 0.6 mg/kg/injection, schedule: Q01DX009 (ip), vehicle: saline with Tween-80) 123 % of control; (dose: 44.0 mg/kg/injection, schedule: Q01DX009 (ip), vehicle: saline with Tween-80) 177 % of control; (dose: 66.0 mg/kg/injection, schedule: Q01DX009 (ip), vehicle: saline with Tween-80) 200 % of control. In addition, the T/C is 177 % of control and 220 % of control under setting [11]; 107 % of control under setting [4]; 90 % of control (dose: 150.0 mg/kg/injection, schedule: Q01DX009 (ip), vehicle: saline with Tween-80); 105 % of control under setting [5]; 111 % of control under setting [12]; 115 % of control under setting [7].
Take `CC(C)=CCc1cc(O)ccc1O`: the T/C runs as follows: (dose: 6.25 mg/kg/injection, schedule: Q01DX009 (ip), vehicle: saline with Tween-80) 108 % of control; (dose: 25.0 mg/kg/injection, schedule: Q01DX009 (ip), vehicle: saline with Tween-80) 112 % of control; under setting [14], 101 % of control.
For the compound `Cc1ccc(S(=O)(=O)F)c(Cl)c1`, the T/C (dose: 50.0 mg/kg/injection, schedule: Q01DX009 (ip), vehicle: other) was 91 % of control; the T/C under setting [13] is 100 % of control; the T/C (dose: 100.0 mg/kg/injection, schedule: Q01DX009 (ip), vehicle: other) was 91 % of control; the T/C under setting [4] is 104 % of control; the T/C (dose: 200.0 mg/kg/injection, schedule: Q01DX009 (ip), vehicle: other) is 91 % of control; the T/C under setting [12] was 109 % of control.
As to `Cc1cc(N(CCCl)CCCl)ccc1C=NC1CCCC1`, the T/C runs as follows: under setting [3], 150 % of control; under setting [8], 95 % of control; (dose: 133.0 mg/kg/injection, schedule: Q01DX009 (ip), vehicle: Klucel (hydroxypropylcellulose) (HPC)) 169 % of control; under setting [9], 188 % of control and 200 % of control; under setting [10], 108 % of control.
Turning to `O=C(O)CC(O)(CC(=O)O)C(=O)O`, the T/C is 123 % of control (dose: 50.0 mg/kg/injection, schedule: Q02DX005 (ip), vehicle: water); 114 % of control (dose: 100.0 mg/kg/injection, schedule: Q02DX005 (ip), vehicle: water); 94 % of control (dose: 400.0 mg/kg/injection, schedule: Q02DX005 (ip), vehicle: water).
Turning to `C(CCC1CO1)CC1CO1` (stereo unspecified), the T/C by setting is: (dose: 50.0 mg/kg/injection, schedule: Q04DX005 (ip), vehicle: saline with Tween-80) 115 % of control; under setting [15], 173 % of control.
Consider `CCCCCCCCCCCCCCCCSCCCCCCCCCCCSCCCCCCCCCCCCCCCC`, for which the T/C was 90 % of control (dose: 25.0 mg/kg/injection, schedule: Q01DX001 (ip), vehicle: saline sonified) and 90 % of control (dose: 50.0 mg/kg/injection, schedule: Q01DX001 (ip), vehicle: saline sonified).
For the compound `COC12C(COC(N)=O)C3=C(C(=O)C(C)=C(N)C3=O)N1CC1C2N1C` (stereo unspecified), the T/C (dose: 2.0 mg/kg/injection, schedule: Q01DX009 (ip), vehicle: saline) was 163 % of control; the T/C (dose: 2.0 mg/kg/injection, schedule: Q01DX010 (ip), vehicle: saline) was 175 % of control; the T/C (dose: 4.0 mg/kg/injection, schedule: Q01DX009 (ip), vehicle: saline) is 179 % of control; the T/C (dose: 4.0 mg/kg/injection, schedule: Q01DX010 (ip), vehicle: saline) is 190 % of control; the T/C (dose: 8.0 mg/kg/injection, schedule: Q01DX009 (ip), vehicle: saline) was 198 % of control; the T/C (dose: 8.0 mg/kg/injection, schedule: Q01DX010 (ip), vehicle: saline) is 240 % of control. Moreover, the T/C runs as follows: (dose: 16.0 mg/kg/injection, schedule: Q01DX009 (ip), vehicle: saline) 88 % of control; (dose: 16.0 mg/kg/injection, schedule: Q01DX010 (ip), vehicle: saline) 110 % of control.
On to `OC1c2ccccc2-c2ccccc2C1O` (stereo unspecified), for which the T/C runs as follows: under setting [15], 153 % of control; (dose: 400.0 mg/kg/injection, schedule: Q04DX002 (ip), vehicle: saline with Tween-80) 155 % of control.
On to `CN1CSC(=S)N(Cc2ccccc2)C1`, for which the T/C by setting is: under setting [14], 90 % of control; under setting [11], 90 % of control.
